12 compounds from ChEMBL document CHEMBL1201862, “PubChem BioAssay data set” (2004) can be followed below.

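Cells were grown in 96-well plates and exposed to each compound for 48 hours at five concentrations; endpoints were interpolated linearly between bracketing concentrations, or set to the highest concentration if not reached. GI50 = concentration required for 50% inhibition of growth.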 Activity calls are given as the source filed them. Cut-off read from the data, not from the text of the source: active = GI50 up to about 1.1 µM and inactive = higher.

Holding throughout (assay): NCI anticancer screen, dose series, 48 h
In experiment [1] the test system is UACC-62.
For experiment [2], the system named is T47D.
The subject of experiment [3] is EKVX.
For experiment [4], the system named is A549.
For experiment [5], the system named is OVCAR-3.
The subject of experiment [6] is SK-OV-3.
For experiment [7], the system named is RPMI-8226.
For experiment [8], the system named is IGROV-1.
In experiment [9] the test system is HOP-62.
Experiment [10] has as its system SW-620.
Experiment [11] deals with MDA-MB-435.
Experiment [12] deals with RXF 393.
Experiment [13] deals with SF-268.
Experiment [14] relates to A498.
Experiment [15] deals with CAKI-1.
For experiment [16], the system named is OVCAR-5.
The test system of experiment [17] is K562.
In experiment [18] the test system is UO-31.
For experiment [19], the system named is SR.

As to `CCOP(=O)(CN1CCNCCN(CP(=O)(OCC)OCC)CC1)OCC`, the GI50 in [1], in [2], in experiment [3], in experiment [4], in experiment [5] and in experiment [6] was > 100 µM (inactive) each time. The GI50 in experiment [7], in experiment [8], in experiment [9], in experiment [10], in experiment [11] and in experiment [12] was > 100 µM (inactive) each time. Further, the GI50 in experiment [13], in [14], in experiment [15], in experiment [16], in [17] and in [18] was > 100 µM (inactive) throughout.
Take `Fc1nc(-c2c3ccccc3c3sc4ccccc4n23)nc(N2CCOCCOCCOCCOCC2)n1`: the GI50 in [1] is > 100 µM (inactive); in [3], > 100 µM (inactive); in experiment [4], > 100 µM (inactive); in experiment [5] it was 63.1 µM (inactive); in [6] it was 71 µM (inactive); in experiment [7], > 100 µM (inactive). The GI50 was > 100 µM (inactive) in [8]; 23.7 µM (inactive) in [9]; > 100 µM (inactive) in [10]; 11.2 µM (inactive) in experiment [19]; > 100 µM (inactive) in experiment [11]; 18.5 µM (inactive) in experiment [12]. In addition, the GI50 in experiment [13] was > 100 µM (inactive); in experiment [14], 91.4 µM (inactive); in experiment [15], > 100 µM (inactive); in experiment [16] it was > 100 µM (inactive); in [17], > 100 µM (inactive); in experiment [18], > 100 µM (inactive).
Regarding `CN(C)CCNC1=CC(=O)c2nc3ccccc3c3ccnc1c23`, the GI50 in [1] is 5.31 µM (inactive); in experiment [3], 2.94 µM (inactive); in experiment [4] it was 4.52 µM (inactive); in [5], 2.78 µM (inactive); in experiment [6], 10.1 µM (inactive); in experiment [7], 5.47 µM (inactive). The GI50 in experiment [8] is 2.47 µM (inactive); in experiment [9], 4.79 µM (inactive); in experiment [10] it was 4.42 µM (inactive); in experiment [19], 2.25 µM (inactive); in [11], 7.52 µM (inactive); in experiment [13] it was 4.53 µM (inactive). In addition, the GI50 was 4.02 µM (inactive) in [15], 5.74 µM (inactive) in experiment [16], 1.19 µM (inactive) in experiment [17] and 3.89 µM (inactive) in [18].
As for `CN(C)/C=C/C(=CC=[N+](C)C)/C=C/N(C)C.[O-][Cl+3]([O-])([O-])[O-]`, the GI50 in experiment [1] is > 100 µM (inactive); in [4], > 100 µM (inactive); in experiment [5], > 100 µM (inactive); in experiment [6] it was 16.7 µM (inactive); in [7], > 100 µM (inactive); in experiment [8] it was > 100 µM (inactive). The GI50 in experiment [9] was > 100 µM (inactive); in experiment [10], > 100 µM (inactive); in experiment [19], > 100 µM (inactive); in experiment [12] it was > 100 µM (inactive); in experiment [13] it was > 100 µM (inactive); in experiment [14] it was 31.3 µM (inactive). In addition, the GI50 is 70.3 µM (inactive) in [15], > 100 µM (inactive) in experiment [16], > 100 µM (inactive) in [17] and > 100 µM (inactive) in [18].
With `CC(C)C(/C=C/c1ccc(Cl)c(Cl)c1)=N\NC(=O)N/N=C(/C=C/c1ccc(Cl)c(Cl)c1)C(C)C`, the GI50 in [1], in experiment [3], in [5], in [6], in experiment [7] and in experiment [8] was > 100 µM (inactive) each time. Moreover, the GI50 in experiment [9] was > 100 µM (inactive); in [10], > 100 µM (inactive); in experiment [19], 86.1 µM (inactive); in experiment [11], > 100 µM (inactive); in experiment [13], > 100 µM (inactive); in experiment [14] it was > 100 µM (inactive). Moreover, the GI50 in experiment [15], in experiment [16], in [17] and in experiment [18] was > 100 µM (inactive) each time.
With `COc1nc(SC)nc2c1C(O)n1c(nc3ccccc31)S2` (configuration not stated), the GI50 is 0.551 µM (active) in experiment [1]; 36.1 µM (inactive) in experiment [3]; 28.6 µM (inactive) in experiment [4]; 32.7 µM (inactive) in experiment [5]; 22.8 µM (inactive) in [6]; 0.42 µM (active) in experiment [7]. Further, the GI50 in experiment [8] is 40.9 µM (inactive); in [9], 12.1 µM (inactive); in experiment [10], 9.14 µM (inactive); in experiment [19], 3.58 µM (inactive); in [11] it was 20.1 µM (inactive); in experiment [13] it was 18.4 µM (inactive). The GI50 in [14] was 16.3 µM (inactive); in experiment [15], 41.3 µM (inactive); in experiment [16], 82 µM (inactive); in [17], 13.7 µM (inactive); in [18] it was 3.08 µM (inactive).
As to `CC(=O)Nc1c(C(=N)C#N)ncn1CCO`, the GI50 in experiment [1], in experiment [2], in experiment [3], in experiment [4], in experiment [5] and in experiment [6] was > 100 µM (inactive) throughout. For the same compound, the GI50 in experiment [7], in [8], in [9], in experiment [10], in experiment [11] and in experiment [12] was > 100 µM (inactive) in each case. Besides, the GI50 in [13], in [14], in [15], in experiment [16] and in experiment [17] was > 100 µM (inactive) throughout.
On to `CC(C)/C(Cl)=N\OC(=O)Nc1ccccc1F`, for which the GI50 is 17.3 µM (inactive) in [1]; 20.9 µM (inactive) in experiment [2]; 16.9 µM (inactive) in experiment [3]; 18.7 µM (inactive) in [4]; 17.7 µM (inactive) in experiment [5]; 19.2 µM (inactive) in [6]. In addition, the GI50 in experiment [7] is 6.04 µM (inactive); in experiment [8], 17.7 µM (inactive); in [9], > 41.1 µM (inactive); in experiment [10], 1.88 µM (inactive); in [19], 2.25 µM (inactive); in experiment [12], 3.15 µM (inactive). The GI50 in experiment [13] was 21 µM (inactive); in experiment [14], 14.9 µM (inactive); in [15] it was 21.3 µM (inactive); in experiment [16], 18.5 µM (inactive); in experiment [17], 1.95 µM (inactive); in [18], 16.1 µM (inactive).
On to `Cc1ncc(CSC(=N)N)n1Cc1ccccc1`, for which the GI50 was > 100 µM (inactive) in [1]; 26.1 µM (inactive) in [2]; 96.8 µM (inactive) in experiment [3]; > 100 µM (inactive) in [4]; 51.6 µM (inactive) in experiment [5]; > 100 µM (inactive) in [6]. Moreover, the GI50 in [7] was 27.5 µM (inactive); in experiment [8], > 100 µM (inactive); in [9], > 100 µM (inactive); in experiment [10] it was 45.5 µM (inactive); in [11], 30.7 µM (inactive); in experiment [12], 7.78 µM (inactive). Moreover, the GI50 is > 100 µM (inactive) in [13]; > 100 µM (inactive) in [14]; 84.1 µM (inactive) in [15]; > 100 µM (inactive) in [16]; 66.8 µM (inactive) in experiment [17]; > 100 µM (inactive) in experiment [18].
Consider `S=C(Nc1ccc(Cl)cc1)c1ccc(CN2CCCCC2)s1`, for which the GI50 in [1] is 5.22 µM (inactive); in experiment [3], 12.3 µM (inactive); in [4], 0.811 µM (active); in experiment [5], 31.1 µM (inactive); in experiment [7] it was 3.02 µM (inactive); in experiment [8] it was 2.86 µM (inactive). Moreover, the GI50 in experiment [10] is 4.4 µM (inactive); in experiment [19], 2.9 µM (inactive); in [11] it was 4.03 µM (inactive); in [13], 36.3 µM (inactive); in experiment [14] it was 10.8 µM (inactive); in experiment [15], 12.2 µM (inactive). Further, the GI50 was 1.56 µM (inactive) in experiment [16], 2.09 µM (inactive) in [17] and 7.8 µM (inactive) in [18].
Regarding `Cc1c(C(=O)Nc2ccccc2)nnn1-c1ccnc2cc(C(F)(F)F)ccc12`, the GI50 in experiment [1] was 71.9 µM (inactive); in experiment [2], 32.4 µM (inactive); in [3] it was 34.7 µM (inactive); in experiment [4], 89.5 µM (inactive); in experiment [5], 67.1 µM (inactive); in experiment [6], > 100 µM (inactive). For the same compound, the GI50 in experiment [8] is > 100 µM (inactive); in experiment [10], > 100 µM (inactive); in [11], 40.8 µM (inactive); in experiment [12], 35.3 µM (inactive); in experiment [13], 78.9 µM (inactive); in experiment [14], 82.8 µM (inactive). Moreover, the GI50 in [15] is 37.5 µM (inactive); in [16], > 100 µM (inactive); in experiment [17] it was 37.2 µM (inactive); in [18], 30.4 µM (inactive).
In the case of `CCOC(=O)c1nnsc1NC(=O)Nc1ccc(Cc2ccc(NC(=O)Nc3snnc3C(=O)OCC)cc2)cc1`, the GI50 in experiment [1] is 76 µM (inactive); in experiment [2], 45.8 µM (inactive); in experiment [3] it was 85.3 µM (inactive); in experiment [4], 46.1 µM (inactive); in experiment [5] it was > 100 µM (inactive); in experiment [6] it was 21.8 µM (inactive). The GI50 in experiment [7] was > 100 µM (inactive); in experiment [8], 28.2 µM (inactive); in experiment [9], 32.7 µM (inactive); in experiment [10] it was > 100 µM (inactive); in experiment [11] it was 93.1 µM (inactive); in experiment [12] it was 18.2 µM (inactive). Further, the GI50 was > 100 µM (inactive) in experiment [13]; 41 µM (inactive) in experiment [15]; > 100 µM (inactive) in experiment [16]; > 100 µM (inactive) in experiment [17]; > 100 µM (inactive) in experiment [18].
